Source: ChEMBL document CHEMBL1126972, “Synthesis of 2-imidazolidinylidenepropanedinitrile derivatives as stimulators of gastrointestinal motility” (J Med Chem, 1993)
Activity calls are given as the source filed them. No cut-off for these calls is given here.

Species on record: Cavia porcellus
Assay: In vitro gastrointestinal motility enhancing activity was determined by potentiating action on electrically evoked contraction of the isolated guinea pig ileum;No effect.
Format: functional
Details: not given

Question: COc1cc(N)c(Cl)cc1C(=O)NCCNCc1ccc(CN(C)C)o1 was tested. Which EC30 did it give?
Answer: Its EC30 is “No effect”.

Each molecule was assayed against Acetylcholinesterase (Homo sapiens) (UniProt P22303). Details: Cavia porcellus; Ileum.
Chain of Acetylcholinesterase (Homo sapiens) (P22303 whole entry): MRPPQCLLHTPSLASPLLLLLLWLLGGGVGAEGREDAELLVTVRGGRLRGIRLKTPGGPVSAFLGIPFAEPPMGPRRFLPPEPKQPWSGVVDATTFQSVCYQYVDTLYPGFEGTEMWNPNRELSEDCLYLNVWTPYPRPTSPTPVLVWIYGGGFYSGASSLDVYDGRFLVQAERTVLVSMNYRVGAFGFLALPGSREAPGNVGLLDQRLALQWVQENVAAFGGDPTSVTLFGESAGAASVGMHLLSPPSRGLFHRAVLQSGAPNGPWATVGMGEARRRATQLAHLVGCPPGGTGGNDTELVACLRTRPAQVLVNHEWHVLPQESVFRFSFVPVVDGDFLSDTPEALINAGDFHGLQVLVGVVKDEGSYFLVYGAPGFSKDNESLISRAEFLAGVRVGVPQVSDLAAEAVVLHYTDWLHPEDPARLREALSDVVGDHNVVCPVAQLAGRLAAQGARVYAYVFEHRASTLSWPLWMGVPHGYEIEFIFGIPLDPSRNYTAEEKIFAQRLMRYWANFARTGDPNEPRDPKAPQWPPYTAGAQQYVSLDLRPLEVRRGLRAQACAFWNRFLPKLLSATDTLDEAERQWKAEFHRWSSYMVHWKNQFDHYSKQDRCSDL

Question: Which EC30 does the source give for CNC(NCCNCc1ccc(CN2CCCC2)o1)=C(C#N)C#N here?
Answer: Its EC30 is 2000 nM.

Question: Which EC30 does the source give for N#CC(C#N)=C1NCCN1CCNCc1ccc(CN2CC=CCC2)o1 here?
Answer: The EC30 was 81 nM.

Question: For CCN(C)Cc1ccc(CNCCN2CCNC2=C(C#N)C#N)o1, which EC30 is on record?
Answer: The EC30 was 540 nM.

Question: C/N=c1\c(O)c(O)\c1=N/CCNCc1ccc(CN2CCCCC2)o1 was tested. Which EC30 did it give?
Answer: The EC30 was 7200 nM.

Question: Which EC30 does the source give for CC1CCCCN1Cc1ccc(CNCCN2CCNC2=C(C#N)C#N)o1 (stereo not given) here?
Answer: The EC30 was 910 nM.

Question: How did the EC30 turn out when N#CC(C#N)=C1NCCN1CCNCc1ccc(CN2CCCC(O)C2)o1 (stereo not given) was run?
Answer: Its EC30 is 460 nM.

Question: Which EC30 does the source give for CNC(NCCNCc1ccc(CN2CCCCC2)o1)=C(C#N)C#N here?
Answer: Its EC30 is 4100 nM.

Question: How did the EC30 turn out when CNC(=C[N+](=O)[O-])NCCSCc1ccc(CN(C)C)o1 was run?
Answer: Its EC30 is 1800 nM.

Question: Which EC30 does the source give for CN1CCN(Cc2ccc(CNCCN3CCNC3=C(C#N)C#N)o2)CC1 here?
Answer: Its EC30 is 1700 nM.

Question: How did the EC30 turn out when COC1CCCN(Cc2ccc(CNCCN3CCNC3=C(C#N)C#N)o2)C1 (stereo not given) was run?
Answer: Its EC30 is 1400 nM.

Question: How did the EC30 turn out when N#CC(C#N)=C1NCCN1CCNCc1ccc(CN2CCCCCC2)o1 was run?
Answer: The EC30 was 320 nM.

Question: Which EC30 does the source give for CC1CCN(Cc2ccc(CNCCN3CCNC3=C(C#N)C#N)o2)CC1 here?
Answer: Its EC30 is 260 nM.

Question: With COC1CCN(Cc2ccc(CNCCN3CCNC3=C(C#N)C#N)o2)CC1 as the molecule, how does the EC30 read?
Answer: Its EC30 is 11000 nM.

Question: How did the EC30 turn out when N#CC(C#N)=C1NCCN1CCNCc1ccc(CN2CCCCC2)o1 was run?
Answer: The EC30 was 16 nM.

Question: Which EC30 does the source give for CN(C)Cc1ccc(CNCCN2CCNC2=C(C#N)C#N)o1 here?
Answer: Its EC30 is 370 nM.

Question: For CCN(CC)CCNC(=O)c1cc(Cl)c(N)cc1OC, which EC30 is on record?
Answer: Its EC30 is 430 nM.

Question: With CNC(NCCNCc1ccc(CN(C)C)o1)=C(C#N)C#N as the molecule, how does the EC30 read?
Answer: The EC30 was 2100 nM.

Question: How did the EC30 turn out when N#CC(C#N)=C1NCCN1CCNCc1ccc(CN2CCOCC2)o1 was run?
Answer: The EC30 was 13000 nM.

Question: Which EC30 does the source give for CNC(NCCNCc1ccc(CN(C(C)C)C(C)C)o1)=C(C#N)C#N here?
Answer: Its EC30 is 8500 nM.

Question: How did the EC30 turn out when N#CC(C#N)=C1NCCN1CCNCc1ccc(CN2CCSCC2)o1 was run?
Answer: The EC30 was 2900 nM.

Question: CC1CCCN(Cc2ccc(CNCCN3CCNC3=C(C#N)C#N)o2)C1 (stereo not given) was tested. Which EC30 did it give?
Answer: The EC30 was 410 nM.

Question: Which EC30 does the source give for CCN(CC)Cc1ccc(CNCCN2CCNC2=C(C#N)C#N)o1 here?
Answer: Its EC30 is 1000 nM.

Question: With N#CC(C#N)=C1NCCN1CCNCc1ccc(CN2CCCC2)o1 as the molecule, how does the EC30 read?
Answer: Its EC30 is 310 nM.

Question: How did the EC30 turn out when N#CC(C#N)=C1NCCN1CCNCc1ccc(CN2CCC(O)CC2)o1 was run?
Answer: Its EC30 is 430 nM.

Species on record: Cavia porcellus
Assay: In vitro gastrointestinal motility enhancing activity was determined by potentiating action on electrically evoked contraction of the isolated guinea pig ileum; the maximum contraction was not achieved to 30%
Format: functional
Details: not given

Question: How did the EC30 turn out when CN(C)C(=O)Oc1cccc([N+](C)(C)C)c1 was run?
Answer: Its EC30 is “inactive”.

Species on record: Cavia porcellus
Assay: In vitro gastrointestinal motility enhancing activity was determined by potentiating action on electrically evoked contraction of the isolated guinea pig ileum; no effect
Format: functional
Details: not given

Question: How did the EC30 turn out when N#CC(C#N)=C1Nc2ccccc2N1CCNCc1ccc(CN2CCCCC2)o1 was run?
Answer: The EC30 was “inactive”.

Question: For CN(C)Cc1ccc(CNCCN2CCN/C2=C\[N+](=O)[O-])o1, which EC30 is on record?
Answer: The EC30 was “inactive”.

Question: How did the EC30 turn out when CC1CCCC(C)N1Cc1ccc(CNCCN2CCNC2=C(C#N)C#N)o1 (stereo not given) was run?
Answer: Its EC30 is “inactive”.

Question: Which EC30 does the source give for CNC(NCCNCc1ccc(COC)o1)=C(C#N)C#N here?
Answer: The EC30 was “inactive”.
